Tested on: MDA-MB-231 human breast cancer cells
Assay: Cell proliferation assay (CellTiter-Glo, 72 hours treatment)
Assay type: cell-based
Settings: Homo sapiens; MDA-MB-231 cells, 72 hours at 37° C., CellTiter-Glo; read-out: MDA-MB-231 cell proliferation assay (IC50)
In short: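 IC50 categories: under 100 nM +++, 100–1000 nM ++, above 1000 nM +, derived by sigmoidal curve fitting of CellTiter-Glo luminescence. Cells plated at 2,500 per well, dosed the following day and exposed 72 h at 37 °C versus DMSO control.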

Compound `CN(Cc1ccccc1)S(=O)(=O)[C@H]1[C@@H](O)[C@@]2(O)c3ncc(Cl)cc3O[C@@]2(c2ccc(Br)cc2)[C@@H]1c1ccccc1` (racemic) [123F, rac-(5aR,6S,7R,8S,8aS)—N-benzyl-5a-(4-bromophenyl)-3-chloro-8,8a-dihydroxy-N-methyl-6-phenyl-5a,7,8,8a-tetrahydro-6H-cyclopenta[4,5]furo[3,2-b]pyridine-7-sulfonamide] has an IC50 of 100 to 1000 nM.
Compound `CNS(=O)(=O)[C@H]1[C@@H](O)[C@@]2(O)c3ncc(Cl)cc3O[C@@]2(c2ccc(Br)cc2)[C@@H]1c1ccccc1` (racemic) [124F, Rac-(5aR,6S,7R,8S,8aS)-5a-(4-bromophenyl)-3-chloro-8,8a-dihydroxy-N-methyl-6-phenyl-5a,7,8,8a-tetrahydro-6H-cyclopenta[4,5]furo[3,2-b]pyridine-7-sulfonamide] has an IC50 of 100 to 1000 nM.
Compound `CNS(=O)(=O)[C@H]1[C@@H](O)[C@@]2(O)c3ncc(Cl)cc3O[C@@]2(c2ccc(C#N)cc2)[C@@H]1c1ccccc1` (racemic) [125F, rac-(5aR,6S,7R,8S,8aS)-3-chloro-5a-(4-cyanophenyl)-8,8a-dihydroxy-N-methyl-6-phenyl-5a,7,8,8a-tetrahydro-6H-cyclopenta[4,5]furo[3,2-b]pyridine-7-sulfonamide] has an IC50 of over 1000 nM.
Work on `O[C@@H]1C[C@@H](c2ccccc2)[C@]2(c3ccc(Br)cc3)Oc3cc(Cl)cnc3[C@]12O` (racemic) [127F, Rac-(5aR,6S,8R,8aS)-5a-(4-bromophenyl)-3-chloro-6-phenyl-5a,6,7,8-tetrahydro-8aH-cyclopenta[4,5]furo[3,2-b]pyridine-8,8a-diol] yielded an IC50 of 100 to 1000 nM.
With `N#Cc1ccc([C@@]23Oc4cc(Cl)cnc4[C@]2(O)[C@H](O)C[C@H]3c2ccccc2)cc1` (racemic) [128F, Rac-4-((5aR,6S,8R,8aS)-3-chloro-8,8a-dihydroxy-6-phenyl-6,7,8,8a-tetrahydro-5aH-cyclopenta[4,5]furo[3,2-b]pyridin-5a-yl)benzonitrile] the IC50 was 100 to 1000 nM.
`O=C1C[C@@H](c2ccccc2)[C@]2(c3ccc(Br)cc3)Oc3cc(Cl)cnc3[C@]12O` (racemic) [129F, Rac-(5aR,6S,8aR)-5a-(4-bromophenyl)-3-chloro-8a-hydroxy-6-phenyl-5a,6,7,8a-tetrahydro-8H-cyclopenta[4,5]furo[3,2-b]pyridin-8-one] gave an IC50 of over 1000 nM.
With `O[C@H]1C[C@@H](c2ccccc2)[C@]2(c3ccc(Br)cc3)Oc3cc(Cl)cnc3[C@]12O` (racemic) [130F, Rac-(5aR,6S,8S,8aS)-5a-(4-bromophenyl)-3-chloro-6-phenyl-5a,6,7,8-tetrahydro-8aH-cyclopenta[4,5]furo[3,2-b]pyridine-8,8a-diol] the IC50 was over 1000 nM.
In the case of `N#Cc1ccc([C@@]23Oc4cc(Cl)cnc4[C@]2(O)[C@@H](O)C[C@H]3c2ccccc2)cc1` (racemic) [131F, Rac-4-((5aR,6S,8S,8aS)-3-chloro-8,8a-dihydroxy-6-phenyl-6,7,8,8a-tetrahydro-5aH-cyclopenta[4,5]furo[3,2-b]pyridin-5a-yl)benzonitrile], the IC50 is reported as over 1000 nM.
Work on `Cc1ccc(S(=O)(=O)NN=C2C[C@@H](c3ccccc3)[C@]3(c4ccc(Br)cc4)Oc4cc(Cl)cnc4[C@]23O)cc1` (racemic) [132F, Rac-N′-((5aR,6S,8aS)-5a-(4-bromophenyl)-3-chloro-8a-hydroxy-6-phenyl-5a,6,7,8a-tetrahydro-8H-cyclopenta[4,5]furo[3,2-b]pyridin-8-ylidene)-4-methylbenzenesulfonohydrazide] yielded an IC50 of over 1000 nM.
With `O[C@@]12C=C[C@@H](c3ccccc3)[C@]1(c1ccc(Br)cc1)Oc1cc(Cl)cnc12` (racemic) [133F, Rac-(5aR,6S,8aR)-5a-(4-bromophenyl)-3-chloro-6-phenyl-5a,6-dihydro-8aH-cyclopenta[4,5]furo[3,2-b]pyridin-8a-ol] the IC50 was over 1000 nM.
Work on `COc1cncc2c1[C@]1(O)[C@H](O)[C@H](C(=O)N3CCC(F)(F)CC3)[C@@H](c3ccccc3)[C@]1(c1ccc(Br)cc1)O2` (racemic) [135F, Rac-((4bS,5R,6R,7S,7aR)-7a-(4-bromophenyl)-4b,5-dihydroxy-4-methoxy-7-phenyl-4b,6,7,7a-tetrahydro-5H-cyclopenta[4,5]furo[2,3-c]pyridin-6-yl)(4,4-difluoropiperidin-1-yl)methanone] yielded an IC50 of under 100 nM.
Compound `COC(=O)[C@H]1[C@@H](O)[C@@]2(O)c3c(cc(Cl)nc3OC)O[C@@]2(c2ccc(Br)cc2)[C@@H]1c1ccccc1` (racemic) [136F, Rac-Methyl (5aR,6S,7R,8R,8aS)-5a-(4-bromophenyl)-3-chloro-8,8a-dihydroxy-1-methoxy-6-phenyl-5a,7,8,8a-tetrahydro-6H-cyclopenta[4,5]furo[3,2-c]pyridine-7-carboxylate] has an IC50 of under 100 nM.
Compound `COc1nc(Cl)cc2c1[C@]1(O)[C@H](O)[C@H](C(=O)N(C)C)[C@@H](c3ccccc3)[C@]1(c1ccc(Br)cc1)O2` (racemic) [137F, Rac-(5aR,6S,7R,8R,8aS)-5a-(4-bromophenyl)-3-chloro-8,8a-dihydroxy-1-methoxy-N,N-dimethyl-6-phenyl-5a,7,8,8a-tetrahydro-6H-cyclopenta[4,5]furo[3,2-c]pyridine-7-carboxamide] has an IC50 of under 100 nM.
In the case of `COc1nc(Cl)cc2c1[C@]1(O)[C@H](O)[C@H](CN(C)C)[C@@H](c3ccccc3)[C@]1(c1ccc(Br)cc1)O2` (racemic) [138F, Rac-(5aR,6S,7S,8R,8aS)-5a-(4-bromophenyl)-3-chloro-7-((dimethylamino)methyl)-1-methoxy-6-phenyl-5a,6,7,8-tetrahydro-8aH-cyclopenta[4,5]furo[3,2-c]pyridine-8,8a-diol], the IC50 is reported as under 100 nM.
`COc1nccc2c1[C@]1(O)[C@H](O)[C@H](CN(C)C)[C@@H](c3ccccc3)[C@]1(c1ccc(C#N)cc1)O2` (racemic) [141F, Rac-4-((5aR,6S,7S,8R,8aS)-7-((dimethylamino)methyl)-8,8a-dihydroxy-1-methoxy-6-phenyl-6,7,8,8a-tetrahydro-5aH-cyclopenta[4,5]furo[3,2-c]pyridin-5a-yl)benzonitrile] gave an IC50 of 100 to 1000 nM.
In the case of `COc1nc(Cl)cc2c1[C@]1(O)[C@H](O)[C@H](CN(C)C)[C@@H](c3ccccc3)[C@]1(c1ccc(Cl)cc1)O2` (racemic) [142F, Rac-(5aR,6S,7S,8R,8aS)-3-chloro-5a-(4-chlorophenyl)-7-((dimethylamino)methyl)-1-methoxy-6-phenyl-5a,6,7,8-tetrahydro-8aH-cyclopenta[4,5]furo[3,2-c]pyridine-8,8a-diol], the IC50 is reported as under 100 nM.
With `COc1nc(Cl)cc2c1[C@]1(O)[C@H](O)[C@H](CN(C)C)[C@@H](c3ccccc3)[C@]1(c1ccc(C(F)F)cc1)O2` (racemic) [143F, Rac-(5aR,6S,7S,8R,8aS)-3-chloro-5a-(4-(difluoromethyl)phenyl)-7-((dimethylamino)methyl)-1-methoxy-6-phenyl-5a,6,7,8-tetrahydro-8aH-cyclopenta[4,5]furo[3,2-c]pyridine-8,8a-diol] the IC50 was under 100 nM.
`COc1nc(Cl)cc2c1[C@]1(O)[C@H](O)[C@H](CN(C)C)[C@@H](c3ccccc3)[C@]1(c1ccc(C(F)(F)F)cc1)O2` (racemic) [144F, Rac-(5aR,6S,7S,8R,8aS)-3-chloro-7-((dimethylamino)methyl)-1-methoxy-6-phenyl-5a-(4-(trifluoromethyl)phenyl)-5a,6,7,8-tetrahydro-8aH-cyclopenta[4,5]furo[3,2-c]pyridine-8,8a-diol] gave an IC50 of under 100 nM.
Work on `COc1nc(C#N)cc2c1[C@]1(O)[C@H](O)[C@H](CN(C)C)[C@@H](c3ccccc3)[C@]1(c1ccc(C(F)F)cc1)O2` (racemic) [146F, Rac-(5aR,6S,7S,8R,8aS)-5a-(4-(difluoromethyl)phenyl)-7-((dimethylamino)methyl)-8,8a-dihydroxy-1-methoxy-6-phenyl-5a,7,8,8a-tetrahydro-6H-cyclopenta[4,5]furo[3,2-c]pyridine-3-carbonitrile] yielded an IC50 of under 100 nM.
Work on `COc1nccc2c1[C@]1(O)[C@H](O)[C@H](CN(C)C)[C@@H](c3ccccc3)[C@]1(c1ccc(C(F)F)cc1)O2` (racemic) [148F, Rac-(5aR,6S,7S,8R,8aS)-5a-(4-(difluoromethyl)phenyl)-7-((dimethylamino)methyl)-1-methoxy-6-phenyl-5a,6,7,8-tetrahydro-8aH-cyclopenta[4,5]furo[3,2-c]pyridine-8,8a-diol] yielded an IC50 of over 1000 nM.
With `COc1nccc2c1[C@]1(O)[C@H](O)[C@H](CN(C)C)[C@@H](c3ccccc3)[C@]1(c1ccc(C(F)(F)F)cc1)O2` (racemic) [149F, Rac-(5aR,6S,7S,8R,8aS)-7-((dimethylamino)methyl)-1-methoxy-6-phenyl-5a-(4-(trifluoromethyl)phenyl)-5a,6,7,8-tetrahydro-8aH-cyclopenta[4,5]furo[3,2-c]pyridine-8,8a-diol] the IC50 was over 1000 nM.
`CNc1cc2c(c(OC)n1)[C@]1(O)[C@H](O)[C@H](CN(C)C)[C@@H](c3ccccc3)[C@]1(c1ccc(C#N)cc1)O2` (racemic) [150F, Rac-4-((5aR,6S,7S,8R,8aS)-7-((dimethylamino)methyl)-8,8a-dihydroxy-1-methoxy-3-(methylamino)-6-phenyl-6,7,8,8a-tetrahydro-5aH-cyclopenta[4,5]furo[3,2-c]pyridin-5a-yl)benzonitrile] showed an IC50 of under 100 nM.
For `COc1nc(Cl)cc2c1[C@]1(O)[C@H](O)[C@H](CN3CCOCC3)[C@@H](c3ccccc3)[C@]1(c1ccc(C#N)cc1)O2` (racemic) [152F, Rac-4-((5aR,6S,7S,8R,8aS)-3-chloro-8,8a-dihydroxy-1-methoxy-7-(morpholinomethyl)-6-phenyl-6,7,8,8a-tetrahydro-5aH-cyclopenta[4,5]furo[3,2-c]pyridin-5a-yl)benzonitrile], the IC50 was under 100 nM.
Compound `COc1nc(C#N)cc2c1[C@]1(O)[C@H](O)[C@H](CN3CCC(F)(F)C3)[C@@H](c3ccccc3)[C@]1(c1ccc(C#N)cc1)O2` (racemic) [153F, Rac-(5aR,6S,7S,8R,8aS)-5a-(4-cyanophenyl)-7-((3,3-difluoropyrrolidin-1-yl)methyl)-8,8a-dihydroxy-1-methoxy-6-phenyl-5a,7,8,8a-tetrahydro-6H-cyclopenta[4,5]furo[3,2-c]pyridine-3-carbonitrile] has an IC50 of 100 to 1000 nM.
